# Experimental data taken from article PMC6337485, “Olive Biophenols Reduces Alzheimer’s Pathology in SH-SY5Y Cells and APPswe Mice” (International Journal of Molecular Sciences, 2018).
# Read-outs that look alike come from different tables or passages of the source.
# How the values were obtained:
# [1] = test system: SH-SY5Y cells; test: Aβ42 induced SH-SY5Y cells toxicity and olive biophenols treatment (MTT viability); details: 1000 µM standard, 24 h pre-incubation, then 25 µM Aβ42 for 24 h
# [2] = test system: SH-SY5Y cells
# [3] = target: T1, Aβ42 fibrils (Homo sapiens, UniProt P05067); test: Thioflavin-T (ThT) fluorometric assay, Aβ42 fibril inhibition; format: biochemical; details: for Thioflavin-T Assay % Inhibition: highest concentration, 1000 µM standard
# [4] = target: T1, Aβ42 fibrils; test: Congo red binding assay, Aβ42 fibril inhibition; format: biochemical; details: for Congo-Red Assay % Inhibition: highest concentration, 1000 µM standard
# [5] = test system: SH-SY5Y cells; remark: listed apart in the source
# [6] = target: T1, Aβ42 fibrils; test: Transmission electron microscope (TEM) imaging of Aβ42 fibrils with olive biophenols; format: biochemical; details: biophenol ≥200 µM, 20 µM Aβ42 fibrils, 24 h, 37 °C
# Protocol: Ten µL aliquot of each sample was spotted onto a glow-discharged, carbon-coated formvar grid and incubated for 30 min. The droplet then was displaced with an equal volume of 2.5% glutaraldehyde (v/v) and incubated for an additional 5 min. Finally, the grid was stained with 10 μL of 3% 0.22 µm filtered uranyl acetate (v/v) twice, and the solution was gently wicked off using Whatman’s grade-1 qualitative filter paper and the grid was then air-dried. Samples were examined by using a Hitachi H7100FA TEM (Hitachi, Japan) at the Centre for Advanced Microscopy, Australian National University, Canberra. All the images were captured at a voltage of 125 kV and an instrumental magnification of 2000×.
# [7] = test system: BACE-1 enzyme; design: method as in PMID 29772299; details: among olive biophenols; cited from earlier work
# [8] = test system: SH-SY5Y cells; design: method as in PMID 29109370; details: cited from earlier work
# [9] = test system: SH-SY5Y cells; details: human, 1000 µM
# [10] = test system: SH-SY5Y cells; details: human, 1000 µM; remark: listed apart in the source
# [11] = 1000 µM standard, 24 h pre-incubation, then 25 µM Aβ42 and 200 µM L-DOPA for 24 h
# [12] = standard biophenols 10–1000 µM, pre-formed Aβ42 fibril, 2 h, room temperature
# [13] = 1000 µM standard, 24 h pre-incubation, then 25 µM Aβ42 and 200 µM copper for 24 h
# T1 sequence (P05067 672-713 limits assumed): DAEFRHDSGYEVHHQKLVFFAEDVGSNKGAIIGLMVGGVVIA
Structure (SMILES),Aβ-SH-SY5Y Toxicity % Viability [1],"Aβ-L-DOPA-SH-SY5Y Toxicity % Viability [2, 11]","Thioflavin-T Assay IC50 [3, 12]","Congo-Red Assay IC50 [4, 12]","Aβ-Cu-SH-SY5Y Toxicity % Viability [5, 13]",Thioflavin-T Assay % Inhibition [3],Congo-Red Assay % Inhibition [4],IC50 ([4]; read-out: Congo-Red Assay IC50),IC50 [3],"IC50 [3, 12]","IC50 ([4]; standard biophenols 10–1000 µM, pre-formed Aβ42 fibril, 2 h, room temperature, read-out: Congo-Red Assay IC50)",Effect on formed Aβ42 fibrils (TEM) [6],BACE-1 enzyme inhibition [7],Protection of SH-SY5Y cells against Cu-induced toxicity [8],IC50 [4],"Aβ-Cu-SH-SY5Y Toxicity % Viability ([5]; human, SH-SY5Y neuroblastoma cells, 1000 µM)",Aβ-SH-SY5Y Toxicity % Viability [9],"Aβ-L-DOPA-SH-SY5Y Toxicity % Viability ([2]; human, 1000 µM)",Aβ-Cu-SH-SY5Y Toxicity % Viability [10]
"O=C(O)/C=C/c1ccc(O)c(O)c1 [Caffeic acid (CA), Caffeic acid]",62 ± 0.53%,67 ± 0.43%,unable to achieve IC50 value,unable to achieve IC50 value,62 ± 0.93%,–,–,–,–,–,–,–,–,–,–,–,–,–,–
"OCCc1ccc(O)c(O)c1 [Hydroxytyrosol (HT), Hydroxytyrosol]",60 ± 1.00%,64 ± 1.02%,unable to achieve IC50 value,–,60 ± 0.84%,45 ± 0.47%,50 ± 0.4%,97.8 µM,–,–,–,–,–,–,–,–,–,–,–
"O=c1cc(-c2ccc(O)c(O)c2)oc2cc(O)cc(O)c12 [Luteolin (LU), Luteolin]",65 ± 0.39%,69 ± 0.87%,–,–,67 ± 0.52%,64 ± 0.4%,61 ± 0.33%,46.3 µM,36.9 µM,–,–,–,–,–,–,–,–,–,–
"CC(Cc1ccc(O)c(O)c1)C(C)Cc1ccc(O)c(O)c1 (stereo not shown) [Nordihroguaretic acid (NDGA), Nordihydroguaiaretic acid, reference compound]",–,–,–,–,–,70 ± 0.5%,69 ± 0.4%,–,–,15.4 µM,14.4 µM,–,–,–,–,–,–,–,–
"C/C=C1/[C@H](O[C@@H]2O[C@H](CO)[C@@H](O)[C@H](O)[C@H]2O)OC=C(C(=O)OC)[C@H]1CC(=O)OCCc1ccc(O)c(O)c1 [Oleuropein (OL), Oleuropein]",68 ± 0.69%,74 ± 0.23%,–,–,76 ± 1.61%,61 ± 0.33%,65 ± 0.3%,36.5 µM,22.9 µM,–,–,significant reduction in both the size and number of fibrils,strongest inhibitor,–,–,–,–,–,–
"O=c1c(O)c(-c2ccc(O)c(O)c2)oc2cc(O)cc(O)c12 [Quercetin (QU), Quercetin]",–,–,–,–,–,57 ± 0.34%,55 ± 0.71%,–,45.9 µM,–,–,moderate reduction in fibril formation,–,rescue SH-SY5Y cells,73.8 µM,60 ± 0.52%,–,–,–
"C[C@@H]1O[C@@H](OC[C@H]2O[C@@H](Oc3c(-c4ccc(O)c(O)c4)oc4cc(O)cc(O)c4c3=O)[C@H](O)[C@@H](O)[C@@H]2O)[C@H](O)[C@H](O)[C@H]1O [Rutin (RU), Rutin]",59 ± 0.59%,57 ± 0.85%,unable to reach the IC50 concentration,unable to achieve IC50 value,54 ± 0.71%,49 ± 0.25%,48 ± 0.33%,–,–,–,–,–,–,–,–,–,–,–,–
"C[C@@H]1O[C@@H](O[C@@H]2[C@@H](O)[C@H](OCCc3ccc(O)c(O)c3)O[C@H](CO)[C@H]2OC(=O)/C=C/c2ccc(O)c(O)c2)[C@H](O)[C@H](O)[C@H]1O [Verbascoside (VB), Verbascoside]",–,–,–,–,–,61 ± 0.35%,57 ± 0.51%,59.6 µM,22.6 µM,–,–,–,strongest inhibitor,rescue SH-SY5Y cells,–,–,66 ± 1.11%,69 ± 0.66%,70 ± 0.48%
